Source: patent US11142527B2, “Dihydropyrimidine compounds and uses thereof in medicine” (SUNSHINE LAKE PHARMA CO., LTD., priority 2017, dated 2021)

Key:
HBV = assay: Test of anti HBV activity in vitro (viral DNA by qPCR); type: cell-based; settings: Hepatitis B virus; HepG2.2.15 cells, viral DNA in cell culture supernatant by qPCR; read-out: EC50 values of the compound of the invention on viral replication
Outline: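 HepG2.2.15 cells (integrated HBV genome) were grown to confluence, then treated with compound in 4-fold dilutions from 4 μM final (0.5% DMSO). Secreted viral DNA in supernatant was quantified by SYBR qPCR against an HBV plasmid standard curve; EC50 from four-parameter nonlinear regression of concentration versus copy number.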

[1] = Cytotoxicity test with CellTiter Glo; type: cell-based; settings: human, HepG2.2.15 cells, highest concentration 150 μM, read-out: CC50 values of the compounds of the invention
Outline: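 HepG2.2.15 cells (3000/well) exposed to serially diluted compound, highest final concentration 150 μM, for 4 days at 37 °C. Viability read by CellTiter Glo, cytotoxicity % taken relative to DMSO controls, and CC50 obtained by four-parameter nonlinear regression.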

SMILES | EC50 (HBV) | CC50 at 4 days [1]
COC(=O)C1=C(CN2CCN3C(=O)N(c4cc(F)cc(-c5ccc(C(=O)O)cc5)c4)C[C@@H]3C2)NC(c2nccs2)=N[C@H]1c1ccc(F)cc1Cl [Example 117, 3′-((S)-7-(((R)-6-(2-chloro-4-fluorophenyl)-5-(methoxycarbonyl)-2-(thiazol-2-yl)-3,6-dihydroprimidin-4-yl)methyl)-3-oxohexahydroimidazo[1,5-a]pyrazin-2(3H)-yl)-5′-fluoro-[1,1′-biphenyl]-4-carboxylic acid] | 18.8 nM | > 150000 nM
COC(=O)C1=C(CN2CCN3C(=O)N(c4ccc(Oc5ccc(C(=O)N6CCOCC6)cc5)cc4)C[C@@H]3C2)NC(c2nccs2)=N[C@H]1c1ccc(F)cc1Cl [Example 56, (R)-methyl 4-(2-chloro-4-fluorophenyl)-6-(((S)-2-(4-(4-(morpholine-4-carbonyl)phenoxy)phenyl)-3-oxohexahydroimidazo[1,5-a]pyrazin-7(1H)-yl)methyl)-2-(thiazol-2-yl)-1,4-dihydropyrimidine-5-carboxylate] | 12.4 nM | > 150000 nM
COC(=O)C1=C(CN2CCN3C(=O)N(c4ccc(C5(C#N)CC5)cc4)C[C@@H]3C2)NC(c2nccs2)=N[C@H]1c1ccc(F)cc1Cl [Example 26] | 1 nM | > 150000 nM
COC(=O)C1=C(CN2CCN3C(=O)N(CC#Cc4ccc(CO)cc4)C[C@@H]3C2)NC(c2nccs2)=N[C@H]1c1ccc(F)cc1Cl [Example 37, (R)-methyl 4-(2-chloro-4-fluorophenyl)-6-(((S)-2-(3-(4-(hydroxymethyl)phenyl)prop-2-yn-1-yl)-3-oxohexahydroimidazo[1,5-a]pyrazin-7(1H)-yl)methyl)-2-(thiazol-2-yl)-1,4-dihydropyrimidine-5-carboxylate] | 12.1 nM | > 150000 nM
COC(=O)C1=C(CN2CCN3C(=O)N(c4ccc(Oc5ccc(C(=O)N6CC(O)C6)cc5)cc4)C[C@@H]3C2)NC(c2nccs2)=N[C@H]1c1ccc(F)cc1Cl [Example 61, (R)-methyl 4-(2-chloro-4-fluorophenyl)-6-(((S)-2-(4-(4-(3-hydroxyazetidine-1-carbonyl)phenoxy)phenyl)-3-oxohexahydroimidazo[1,5-a]pyrazin-7(1H)-yl)methyl)-2-(thiazol-2-yl)-1,4-dihydropyrimidine-5-carboxylate] | 15 nM | > 150000 nM
COCC(C)(C)NC(=O)c1ccc(Oc2ccc(N3C[C@@H]4CN(CC5=C(C(=O)OC)[C@H](c6ccc(F)cc6Cl)N=C(c6nccs6)N5)CCN4C3=O)cc2)cc1 [Example 70, (R)-methyl 4-(2-chloro-4-fluorophenyl)-6-(((S)-2-(4-(4-((1-methoxy-2-methylprop-2-yl)carbamoyl)phenoxy)phenyl)-3-oxohexahydroimidazo[1,5-a]pyrazin-7(1H)-yl)methyl)-2-(thiazol-2-yl)-1,4-dihydropyrimidine-5-carboxylate] | 15.9 nM | > 150000 nM
COC(=O)C1=C(CN2CCN3C(=O)N(c4cc(F)cc(OC5CCC(C(=O)O)CC5)c4)C[C@@H]3C2)NC(c2nccs2)=N[C@H]1c1ccc(F)cc1Cl (stereo partly drawn) [Example 23, 4-(3-((S)-7-(((R)-6-(2-chloro-4-fluorophenyl)-5-(methoxycarbonyl)-2-(thiazol-2-yl)-3,6-dihydropyrimidin-4-yl)methyl)-3-oxohexahydroimidazo[1,5-a]pyrazin-2(3H)-yl)-5-fluorophenoxy)cyclohexane carboxylic acid] | 7 nM | > 150000 nM
COC(=O)C1=C(CN2CCN3C(=O)N(CC#Cc4c(C)cc(C#N)cc4C)C[C@@H]3C2)NC(c2nccs2)=N[C@H]1c1ccc(F)cc1Cl [Example 48, (R)-methyl 4-(2-chloro-4-fluorophenyl)-6-(((S)-2-(3-(4-cyano-2,6-dimethylphenyl)-2-propynyl)-3-oxohexahydroimidazo[1,5-a]pyrazin-7(1H)-yl)methyl)-2-me (thiazol-2-yl)-1,4-dihydropyrimidine-5-carboxylate] | 6.3 nM | > 150000 nM
COC(=O)C1=C(CN2CCN3C(=O)N(c4ccc(N5CCOC(C(=O)O)C5)cc4)C[C@@H]3C2)NC(c2nccs2)=N[C@H]1c1ccc(F)cc1Cl (stereo partly drawn) [Example 77, 4-(4-((S)-7-(((R)-6-(2-chloro-4-fluorophenyl)-5-(methoxycarbonyl)-2-(thiazol-2-yl)-3,6-dihydropyrimidin-4-yl)methyl)-3-oxohexahydroimidazo[1,5-a]pyrazin-2(3H)-yl)phenyl)morpholine-2-carboxylic acid] | 9.7 nM | > 150000 nM
COC(=O)C1=C(CN2CCN3C(=O)N(Cc4ccc(Oc5ccc(C#N)cc5)cc4)C[C@@H]3C2)NC(c2nccs2)=N[C@H]1c1ccc(F)cc1Cl [Example 102, (R)-methyl 4-(2-chloro-4-fluorophenyl)-6-(((S)-2-(4-(4-cyanophenoxy)benzyl)-3-oxohexahydroimidazo[1,5-a]pyrazin-7(1H)-yl)methyl)-2-(thiazol-2-yl)-1,4-dihydropyrimidine-5-carboxylate] | 4.2 nM | > 150000 nM
COC(=O)C1=C(CN2CCN3C(=O)N(c4nc(-c5ccc(CC(C)(C)C(=O)O)cc5)cs4)C[C@@H]3C2)NC(c2nccs2)=N[C@H]1c1ccc(F)cc1Cl [Example 36, 3-(4-(2-((S)-7-(((R)-6-(2-chloro-4-fluorophenyl)-5-(methoxycarbonyl)-2-(thiazol-2-yl)-3,6-dihydropyrimidin-4-yl)methyl)-3-oxohexahydroimidazo[1,5-a]pyrazin-2(3H)-yl)thiazol-4-yl)phenyl)-2,2-dimethylprop ionic acid] | 22 nM | > 150000 nM
COC(=O)C1=C(CN2CCN3C(=O)N(c4ccc(F)c(-c5ccc(C(=O)O)cc5)c4)C[C@@H]3C2)NC(c2nccs2)=N[C@H]1c1ccc(F)cc1Cl [Example 114, 5′-((S)-7-(((R)-6-(2-chloro-4-fluorophenyl)-5-(methoxycarbonyl)-2-(thiazol-2-yl)-3,6-dihydropyrimidin-4-yl)methyl)-3-oxohexahydroimidazo[1,5-a]pyrazin-2(3H)-yl)-2′-fluoro-[1,1′-biphenyl]-4-carboxylic acid] | 27.7 nM | > 150000 nM
COC(=O)C1=C(CN2CCN3C(=O)N(c4ccc(Oc5ccc(C(=O)N6CCO[C@H](CCC(=O)O)C6)cc5)cc4)C[C@@H]3C2)NC(c2nccs2)=N[C@H]1c1ccc(F)cc1Cl [Example 74, 3-((R)-4-(4-(4-(((S)-7-((R)-6-(2-chloro-4-fluorophenyl)-5-(methoxycarbonyl)-2-(thiazol-2-yl)-3,6-dihydropyrimidin-4-yl)methyl)-3-oxohexahydroimidazo[1,5-a]pyrazin-2(3H)-yl)phenoxy)benzoyl)morpholin-2-yl)propanoic acid] | 30.7 nM | > 150000 nM
COC(=O)C1=C(CN2CCN3C(=O)N(CC#Cc4ccc(C(=O)N(C)C)cc4)C[C@@H]3C2)NC(c2nccs2)=N[C@H]1c1ccc(F)cc1Cl [Example 42, (R)-methyl 4-(2-chloro-4-fluorophenyl)-6-(((S)-2-(3-(4-(dimethylcarbamoyl)phenyl)prop-2-yn-1-yl)-3-oxohexahydroimidazo[1,5-a]pyrazin-7(1H)-yl)methyl)-2-(thiazol-2-yl)-1,4-dihydropyrimidine-5-carboxylate] | 8 nM | > 150000 nM
COC(=O)C1=C(CN2CCN3C(=O)N(CC#Cc4ccc(S(C)(=O)=O)cc4)C[C@@H]3C2)NC(c2nccs2)=N[C@H]1c1ccc(F)cc1Cl [Example 41, (R)-methyl 4-(2-chloro-4-fluorophenyl)-6-(((S)-2-(3-(4-(methylsulfonyl)phenyl)-2-propyn-1-yl)-3-oxohexahydroimidazo[1,5-a]pyrazin-7(1H)-yl)methyl)-2-(thiazol-2-yl)-1,4-dihydropyrimidine-5-carboxylate] | 5.1 nM | > 150000 nM
COC(=O)C1=C(CN2CCN3C(=O)N(c4ccc(Oc5ccc(OC)cc5)cc4)C[C@@H]3C2)NC(c2nccs2)=N[C@H]1c1ccc(F)cc1Cl [Example 103, (R)-methyl 4-(2-chloro-4-fluorophenyl)-6-(((S)-2-(4-(4-methoxyphenoxy)phenyl)-3-oxohexahydroimidazo[1,5-a]pyrazin-7(1H)-yl)methyl)-2-me (thiazol-2-yl)-1,4-dihydropyrimidine-5-carboxylate] | 19.4 nM | > 150000 nM
COC(=O)C1=C(CN2CCN3C(=O)N(c4ccc(Oc5ccc(C(=O)O)cc5F)cn4)C[C@@H]3C2)NC(c2nccs2)=N[C@H]1c1ccc(F)cc1Cl [Example 22, 4-((6-((S)-7-(((R)-6-(2-chloro-4-fluorophenyl)-5-(methoxycarbonyl)-2-(thiazol-2-yl)-3,6-dihydropyrimidin-4-yl)methyl)-3-oxohexahydroimidazo[1,5-a]pyrazin-2(3H)-yl)pyridin-3-yl)oxy)-3-fluorobenzoic acid] | 18 nM | > 150000 nM
COC(=O)C1=C(CN2CCN3C(=O)N(c4ccc(Oc5ccc(CO)cc5)cc4)C[C@@H]3C2)NC(c2nccs2)=N[C@H]1c1ccc(F)cc1Cl [Example 99, (R)-methyl 4-(2-chloro-4-fluorophenyl)-6-(((S)-2-(4-(4-(hydroxymethyl)phenoxy)phenyl)-3-oxohexahydroimidazo[1,5-a]pyrazin-7(1H)-yl)methyl)-2-(thiazol-2-yl)-1,4-dihydropyrimidine-5-carboxylate] | 12.6 nM | > 150000 nM
COC(=O)C1=C(CN2CCN3C(=O)N(c4ccc(Oc5ccc(S(C)(=O)=O)cc5)cc4)C[C@@H]3C2)NC(c2nccs2)=N[C@H]1c1ccc(F)cc1Cl [Example 106, (R)-methyl 4-(2-chloro-4-fluorophenyl)-6-(((S)-2-(4-(4-(methylsulfonyl)phenoxy)phenyl)-3-oxohexahydroimidazo[1,5-a]pyrazin-7(1H)-yl)methyl)-2-(thiazol-2-yl)-1,4-dihydropyrimidine-5-carboxylate] | 6.2 nM | > 150000 nM
